Assay: xn = mol fraction of the nth substance listed
Details: 101 kPa, Liquid, Vibrating tube method

CN(C)CCCN [N,N-dimethyl-1,3-propanediamine] + O
mass density [kg/m3]
Details	283.15 K	288.15 K	293.15 K	298.15 K	303.15 K	308.15 K	313.15 K	318.15 K
x2 = 0	825.96	821.56	817.14	812.72	808.28	803.83	799.38	794.9
x2 = 0.0403	829.01	824.62	820.21	815.8	811.37	806.92	802.47	797.99
x2 = 0.0811	832.1	827.73	823.33	818.92	814.5	810.07	805.61	801.14
x2 = 0.1198	835.2	830.84	826.46	822.07	817.65	813.22	808.78	804.31
x2 = 0.16	838.61	834.27	829.9	825.51	821.11	816.69	812.24	807.78
x2 = 0.1996	842.14	837.81	833.45	829.08	824.69	820.27	815.84	811.38
x2 = 0.2498	846.96	842.65	838.31	833.95	829.57	825.17	820.74	816.29
x2 = 0.2998	852.16	847.87	843.54	839.2	834.84	830.45	826.04	821.59
x2 = 0.3499	857.74	853.47	849.16	844.84	840.49	836.11	831.71	827.27
x2 = 0.3997	863.92	859.67	855.38	851.07	846.73	842.37	837.97	833.54
x2 = 0.4501	870.78	866.55	862.28	857.98	853.66	849.3	844.91	840.49
x2 = 0.4998	878.37	874.15	869.89	865.61	861.29	856.94	852.56	848.14
x2 = 0.5501	886.96	882.76	878.51	874.24	869.93	865.59	861.21	856.79
x2 = 0.5999	896.46	892.27	888.05	883.78	879.48	875.14	870.76	–
x2 = 0.6498	907.17	902.99	898.77	894.51	890.21	885.88	881.5	–
x2 = 0.7	919.35	915.19	910.98	906.73	902.43	898.1	893.72	–
x2 = 0.7499	932.79	928.64	924.44	920.2	915.92	911.6	907.23	–
x2 = 0.8	947.49	943.36	939.18	934.96	930.71	926.42	922.09	–
x2 = 0.84	959.97	955.86	951.72	947.55	943.35	939.13	934.86	–
x2 = 0.8799	972.18	968.2	964.2	960.18	956.14	952.08	947.99	–
x2 = 0.9	977.57	973.8	970	966.18	962.33	958.45	954.54	–
x2 = 0.92	981.9	978.55	975.13	971.67	968.16	964.59	960.96	–
x2 = 0.94	984.99	982.31	979.51	976.61	973.6	970.49	967.29	–
x2 = 0.9597	987.53	985.64	983.57	981.34	978.95	976.4	973.72	–
x2 = 0.975	990.28	988.99	987.47	985.74	983.82	981.71	979.42	–
x2 = 0.99	994.84	994.04	992.95	991.63	990.07	988.31	986.35	–
